Results from paper PMC12775434, “Ultra-large virtual screening unveils potent agonists of the neuromodulatory orphan receptor GPR139” (Nature Communications, 2025).
Values joined by “and” are separate entries in the source; they are usually repeats but may differ in a detail not shown here. Equal entries are not always repeated. Where two headings read alike, the source gives them in different places.

Assays:
Format in all cases: cell-based
GPR139 [1] = target: T1, GPR139 (Homo sapiens, UniProt Q6DWJ6); experiment: Ca2+ mobilization assay, agonist mode, stable GPR139-CHOk1 cell line; conditions: for Emax: normalized to Lundbeck Cmp 1a, read-out: Emax (%) Ca2+
T1 sequence (Q6DWJ6 1-353): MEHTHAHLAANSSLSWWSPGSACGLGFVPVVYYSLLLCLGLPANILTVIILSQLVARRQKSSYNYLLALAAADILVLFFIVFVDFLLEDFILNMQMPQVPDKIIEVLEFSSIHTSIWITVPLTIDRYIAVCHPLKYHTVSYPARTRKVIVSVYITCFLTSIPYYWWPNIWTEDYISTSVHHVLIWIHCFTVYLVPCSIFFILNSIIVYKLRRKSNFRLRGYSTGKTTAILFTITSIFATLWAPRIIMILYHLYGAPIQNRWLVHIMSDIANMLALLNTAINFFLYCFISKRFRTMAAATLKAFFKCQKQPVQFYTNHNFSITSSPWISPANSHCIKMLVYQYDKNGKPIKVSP
Method in brief: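 Agonist activity of compounds is assessed in stably transfected CHO-K1 cells using the calcium dye Fluo-4 at 37 °C in HEPES-buffered HBSS (pH 7.4). Efficacy is expressed relative to the reference agonist Lundbeck Cmp 1a, set as 100%.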

[2] = target: T2, human muscarinic acetylcholine M1 receptor (M1R) (Homo sapiens, UniProt P11229); experiment: Ca2+ mobilization counter-screen in M1R-CHOk1 cells
T2 sequence (P11229 1-460): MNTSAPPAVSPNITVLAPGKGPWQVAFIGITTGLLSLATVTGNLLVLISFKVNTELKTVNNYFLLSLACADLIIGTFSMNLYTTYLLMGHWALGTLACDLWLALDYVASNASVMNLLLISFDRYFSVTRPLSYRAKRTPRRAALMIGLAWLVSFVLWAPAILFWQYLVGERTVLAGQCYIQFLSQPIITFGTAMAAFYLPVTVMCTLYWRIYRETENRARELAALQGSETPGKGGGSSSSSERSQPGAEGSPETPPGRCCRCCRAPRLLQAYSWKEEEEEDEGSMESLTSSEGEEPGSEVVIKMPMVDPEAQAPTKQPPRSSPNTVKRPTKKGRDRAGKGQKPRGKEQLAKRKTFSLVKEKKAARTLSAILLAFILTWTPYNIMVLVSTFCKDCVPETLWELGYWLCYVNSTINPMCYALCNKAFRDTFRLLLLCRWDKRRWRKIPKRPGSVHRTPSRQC
Method in brief: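 M1R-CHOk1 cells seeded 20–24 h, loaded with 2 µM Fluo-4 AM (2.5 mM probenecid, 0.01% Pluronic F-68) for 1 h at 37 °C in HBSS/20 mM HEPES pH 7.4. Compounds added after baseline (≤0.3% DMSO); calcium fluorescence read at 37 °C, ex 485/em 525 nm.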

GPR139 [3] = target: T1, GPR139; experiment: Ca2+ mobilization assay, antagonist mode (EC80 800 nM Lundbeck Cmp 1a after 20 min preincubation), GPR139-CHOk1
Method in brief: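 Fluo-4-loaded GPR139-CHOk1 cells in HEPES-buffered HBSS (pH 7.4, 2.5 mM probenecid) given test compounds at 10 µM, then after 20 min challenged with 800 nM Lundbeck Cmp 1a (EC80). Calcium fluorescence read at 37 °C, 485/525 nm.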

[4] = GPR139-CHOk1, read-out: EC50, Ca2+ mobilization
[5] = Supplementary Table 2, mean ± SEM
[6] = log [Compound] M -4.5, replicate experiments
[7] = log [Compound] M -5.0, replicate experiments
[8] = log [Compound] M -5.5, replicate experiments
[9] = log [Compound] M -6.0, replicate experiments
[10] = log [Compound] M -6.5, replicate experiments
[11] = log [Compound] M -7.0, replicate experiments
[12] = log [Compound] M -7.5, replicate experiments
[13] = log [Compound] M -8.0, replicate experiments
[14] = log [Compound] M -8.5, replicate experiments
[15] = log [Compound] M -9.0, replicate experiments
[16] = 0.1 µM, individual replicates (Supplementary Figure 3)
[17] = 1 µM, individual replicates (Supplementary Figure 3)
[18] = 10 µM, individual replicates (Supplementary Figure 3)
[19] = Agonist mode, individual replicates (Supplementary Figure 1)
[20] = primary screen, 10 µM compound, agonist mode, three columns = independent experiments
[21] = individual replicates (Supplementary Figure 2)
[22] = individual replicates (Supplementary Figure 1)

Row | SMILES | EC50 (GPR139 [1]; [4]) [nM] | Emax (GPR139 [1]; [5]) [%] | Ca2+ signal (% of Cmp 1a) (GPR139 [1]; [6]) | Ca2+ signal (% of Cmp 1a) (GPR139 [1]; [7]) | Ca2+ signal (% of Cmp 1a) (GPR139 [1]; [8]) | Ca2+ signal (% of Cmp 1a) (GPR139 [1]; [9]) | Ca2+ signal (% of Cmp 1a) (GPR139 [1]; [10]) | Ca2+ signal (% of Cmp 1a) (GPR139 [1]; [11]) | Ca2+ signal (% of Cmp 1a) (GPR139 [1]; [12]) | Ca2+ signal (% of Cmp 1a) (GPR139 [1]; [13]) | Ca2+ signal (% of Cmp 1a) (GPR139 [1]; [14]) | Ca2+ signal (% of Cmp 1a) (GPR139 [1]; [15]) | Ca2+ signal (% of Cmp 1a) (GPR139 [1]; [16]) | Ca2+ signal (% of Cmp 1a) (GPR139 [1]; [17]) | Ca2+ signal (% of Cmp 1a) (GPR139 [1]; [18]) | Ca2+ signal (% of Cmp 1a) (GPR139 [1]; [19]) | Ca2+ signal (% of Cmp 1a) (GPR139 [1]; [20]) | Ca2+ signal (% of Carbachol) [2, 21] | Ca2+ signal (% of Cmp 1a) (GPR139 [3]; [22]) | also measured
1 | Cc1cscc1-c1nc(CC(=O)NC(C)c2ccccc2)no1 (stereo not shown) [Compound 1.1, CC(C1=CC=CC=C1)NC(CC2=NOC(C3=CSC=C3C)=N2)=O] | 50 | 125 ± 12 | 130 % of Cmp 1a and 133 % of Cmp 1a and 104 % of Cmp 1a and 91 % of Cmp 1a | 136 % of Cmp 1a and 130 % of Cmp 1a and 133 % of Cmp 1a and 83 % of Cmp 1a | 124 % of Cmp 1a and 109 % of Cmp 1a and 177 % of Cmp 1a and 86 % of Cmp 1a | 113 % of Cmp 1a and 116 % of Cmp 1a and 167 % of Cmp 1a and 85 % of Cmp 1a | 103 % of Cmp 1a and 101 % of Cmp 1a and 147 % of Cmp 1a and 66 % of Cmp 1a | 80 % of Cmp 1a and 83 % of Cmp 1a and 116 % of Cmp 1a and 48 % of Cmp 1a | 60 % of Cmp 1a and 56 % of Cmp 1a and 80 % of Cmp 1a and 40 % of Cmp 1a | 36 % of Cmp 1a and 26 % of Cmp 1a and 21 % of Cmp 1a and 24 % of Cmp 1a | 21 % of Cmp 1a and 9 % of Cmp 1a and -4 % of Cmp 1a and 18 % of Cmp 1a | 19 % of Cmp 1a and 13 % of Cmp 1a and -16 % of Cmp 1a and 5.33 % of Cmp 1a |  |  |  |  |  |  |  | Ca2+ signal (% of Cmp 1a) (GPR139 [1]; Agonist mode, individual replicates (Supplementary Figure 4)): 96 % of Cmp 1a and 101 % of Cmp 1a and 83 % of Cmp 1a; fold improved potency compared to compound 1 (GPR139 [1]; Ca2+ mobilization EC50): 3 fold; Ca2+ signal (% of Cmp 1a) (GPR139 [1]; log [Compound] M = -4.5, individual replicate columns): 130 % of Cmp 1a and 133 % of Cmp 1a and 104 % of Cmp 1a and 91 % of Cmp 1a; Ca2+ signal (% of Cmp 1a) (GPR139 [1]; log [Compound] M = -5.0, individual replicate columns): 136 % of Cmp 1a and 130 % of Cmp 1a and 133 % of Cmp 1a and 83 % of Cmp 1a; Ca2+ signal (% of Cmp 1a) (GPR139 [1]; log [Compound] M = -5.5, individual replicate columns): 124 % of Cmp 1a and 109 % of Cmp 1a and 177 % of Cmp 1a and 86 % of Cmp 1a; Ca2+ signal (% of Cmp 1a) (GPR139 [1]; log [Compound] M = -6.0, individual replicate columns): 113 % of Cmp 1a and 116 % of Cmp 1a and 167 % of Cmp 1a and 85 % of Cmp 1a; Ca2+ signal (% of Cmp 1a) (GPR139 [1]; log [Compound] M = -6.5, individual replicate columns): 103 % of Cmp 1a and 101 % of Cmp 1a and 147 % of Cmp 1a and 66 % of Cmp 1a; Ca2+ signal (% of Cmp 1a) (GPR139 [1]; log [Compound] M = -7.0, individual replicate columns): 80 % of Cmp 1a and 83 % of Cmp 1a and 116 % of Cmp 1a and 48 % of Cmp 1a; Ca2+ signal (% of Cmp 1a) (GPR139 [1]; log [Compound] M = -7.5, individual replicate columns): 60 % of Cmp 1a and 56 % of Cmp 1a and 80 % of Cmp 1a and 40 % of Cmp 1a; Ca2+ signal (% of Cmp 1a) (GPR139 [1]; log [Compound] M = -8.0, individual replicate columns): 36 % of Cmp 1a and 26 % of Cmp 1a and 21 % of Cmp 1a and 24 % of Cmp 1a; Ca2+ signal (% of Cmp 1a) (GPR139 [1]; log [Compound] M = -8.5, individual replicate columns): 21 % of Cmp 1a and 9 % of Cmp 1a and -4 % of Cmp 1a and 18 % of Cmp 1a; Ca2+ signal (% of Cmp 1a) (GPR139 [1]; log [Compound] M = -9.0, individual replicate columns): 19 % of Cmp 1a and 13 % of Cmp 1a and -16 % of Cmp 1a and 5.33 % of Cmp 1a; Ca2+ signal (% of Carbachol) ([2]; individual replicates (Supplementary Figure 5)): -5 % of Carbachol and -11 % of Carbachol; Ca2+ signal (% of Cmp 1a) (GPR139 [3]; individual replicates (Supplementary Figure 4)): -3.33 % of Cmp 1a and 11 % of Cmp 1a and -12 % of Cmp 1a
2 | Cc1cc(-c2nc(CC(=O)NC(C)c3ccccc3)no2)sc1C (stereo not shown) [Compound 1, CC(NC(=O)CC1=NOC(=N1)C2=CC(C)=C(C)S2)C=3C=CC=CC3] | 160 | 94 ± 3 | 84 % of Cmp 1a and 91 % of Cmp 1a and 93 % of Cmp 1a | 91 % of Cmp 1a and 83 % of Cmp 1a and 90 % of Cmp 1a | 79 % of Cmp 1a | 79 % of Cmp 1a and 67 % of Cmp 1a and 70 % of Cmp 1a | 57 % of Cmp 1a and 52 % of Cmp 1a and 53 % of Cmp 1a | 45 % of Cmp 1a and 26 % of Cmp 1a and 43 % of Cmp 1a | 27 % of Cmp 1a and 24 % of Cmp 1a and 16 % of Cmp 1a | 10 % of Cmp 1a and 2 % of Cmp 1a and 7.42 % of Cmp 1a | 1.62 % of Cmp 1a and 6 % of Cmp 1a and 3.64 % of Cmp 1a | 6 % of Cmp 1a and -1.9 % of Cmp 1a and 3.54 % of Cmp 1a | 36.2 % of Cmp 1a and 58.0 % of Cmp 1a | 74.5 % of Cmp 1a and 72.2 % of Cmp 1a | 88.7 % of Cmp 1a and 74.0 % of Cmp 1a | 94 % of Cmp 1a (2×) and 99 % of Cmp 1a | 94 % of Cmp 1a and 99 % of Cmp 1a | -12 % of Carbachol and -15 % of Carbachol | 6.536 % of Cmp 1a and 8.894 % of Cmp 1a and 14.743 % of Cmp 1a | 
3 | Cc1noc(CNC(=O)C2(C)CCCCN2C(=O)c2ccccc2)n1 (stereo not shown) [Compound 4, CC1=NOC(CNC(=O)C2(C)CCCCN2C(=O)C=3C=CC=CC3)=N1] |  | 100 ± 7 | 98 % of Cmp 1a and 82 % of Cmp 1a | 75 % of Cmp 1a and 63 % of Cmp 1a | 44 % of Cmp 1a and 46 % of Cmp 1a | 13 % of Cmp 1a and 24 % of Cmp 1a | 4.41 % of Cmp 1a and 3 % of Cmp 1a | 3.62 % of Cmp 1a and -1.16 % of Cmp 1a | -4.26 % of Cmp 1a and -2.55 % of Cmp 1a | -0.711 % of Cmp 1a and -3.49 % of Cmp 1a | 5.56 % of Cmp 1a and 4.65 % of Cmp 1a | -1.86 % of Cmp 1a and -5 % of Cmp 1a | -4.2 % of Cmp 1a and 0.43 % of Cmp 1a | 9.8 % of Cmp 1a and 4.1 % of Cmp 1a | 51.3 % of Cmp 1a and 47.8 % of Cmp 1a | 75 % of Cmp 1a and 80 % of Cmp 1a and 81 % of Cmp 1a | 75 % of Cmp 1a and 80 % of Cmp 1a and 81 % of Cmp 1a | -17 % of Carbachol and -15 % of Carbachol | 35.6047 % of Cmp 1a and 34.6013 % of Cmp 1a and 39.6569 % of Cmp 1a | EC50 (GPR139 [1]; Supplementary Table 2, mean ± SEM, read-out: pEC50 Ca2+ (converted)): 3980 nM
